Source: US20220144815A1, “1,3,4-OXADIAZOLES AND THEIR DERIVATIVES AS NEW ANTIFUNGAL AGENTS” (Bayer Aktiengesellschaft, priority 2018, published 2022)

Test: Log P by HPLC on reversed phase columns, method [a] (EEC directive 79/831 Annex V.A8)
Assay type: physicochemical
Settings: log P determined according to method [a] (HPLC on reversed phase columns)
Experimental: Measurement of Log P values as provided herein was performed according to EEC directive 79/831 Annex V.A8 by HPLC (High Performance Liquid Chromatography) on reversed phase columns with the following methods: • ^[a] Log P value is determined by measurement of LC-UV, in an acidic range, with 0.1% formic acid in water and acetonitrile as eluent (linear gradient from 10% acetonitrile to 95% acetonitrile). • ^[b] Log P value is determined by measurement of LC-UV, in a neutral range, with 0.001 molar ammonium acetate solution in water and acetonitrile as eluent (linear gradient from 10% acetonitrile to 95% acetonitrile). • ^[c] Log P value is determined by measurement of LC-UV, in an acidic range, with 0.1% phosphoric acid and acetonitrile as eluent (linear gradient from 10% acetonitrile to 95% acetonitrile). If more than one Log P value is available within the same method, all the values are given and separated by “+”. Calibration was done with straight-chain alkan2-ones (with 3 to 16 carbon atoms) with known Log P values (measurement of Log P values using retention times with linear interpolation between successive alkanones). Lambda-max-values were determined using UV-spectra from 200 nm to 400 nm and the peak values of the chromatographic signals In table 1, the log P values were determined according to method [^a]. In table 2, the log P values were determined according to method [^a].

SMILES | logP
O=C(O)c1ccc(-c2nnc(C(F)(F)F)s2)cc1 [Example I-008] | 2.41
CC1(C)OB(c2ccc(-c3nnc(C(F)F)o3)cc2)OC1(C)C [Example I-021] | 3.84
CSc1ccc(-c2nnc(C(F)F)o2)cc1 [Example I-002] | 2.75
CC1(Nc2ncc(-c3nnc(C(F)F)o3)cn2)CC1 [Example I-066] | 1.90
FC(F)c1nnc(-c2cnc(NC3(C4CC4)CC3)nc2)o1 [Example I-082] | 2.33
FC(F)c1nnc(-c2cnc(CC3CCCCC3)nc2)o1 [Example I-083] | 3.40
C#CCNc1ncc(-c2nnc(C(F)F)o2)cn1 [Example I-063] | 1.59
CC(C)(Nc1ncc(-c2nnc(C(F)F)o2)cn1)C1CC1 [Example I-084] | 3.26
COCCNC(=O)c1ccc(-c2nnc(C(F)F)o2)cn1 [Example I-047] | 1.55
CN(C(=O)c1ccc(-c2nnc(C(F)F)o2)cn1)c1ccccc1 [Example I-049] | 2.05
Cc1noc(C)c1-c1ncc(-c2nnc(C(F)F)o2)cn1 [Example I-081] | 2.57
O=C(NCC1CC1)c1ccc(-c2nnc(C(F)F)o2)cn1 [Example I-046] | 2.16
FC(F)c1nnc(-c2ccc(N3CCCCC3)nc2)o1 [Example I-040] | 2.72
O=C(O)c1ccc(-c2nnc(C(F)F)o2)cc1 [Example I-001] | 1.66
CC(Nc1ncc(-c2nnc(C(F)F)o2)cn1)C1CC1 (stereo not drawn) [Example I-073] | 2.51
Fc1ccc(-c2ncc(-c3nnc(C(F)F)o3)cn2)cn1 [Example I-080] | 2.31
FC(F)c1nnc(-c2cnc(-c3cccs3)nc2)o1 [Example I-071] | 2.64
Nc1ccc(-c2nnc(C(F)F)o2)cn1 [Example I-030] | 0.11
FC(F)c1nnc(-c2cnc(NCc3ccccc3)nc2)o1 [Example I-088] | 2.57
CC(C)(C)OC(=O)N1CCN(c2ccc(-c3nnc(C(F)F)o3)cn2)CC1 [Example I-058] | 3.25
CN(C(=O)c1ccc(-c2nnc(C(F)F)o2)cc1)c1ccccc1 [Example I-022] | 2.46

Same assay, conditions: reversed phase HPLC column; Method A: LC-UV, acidic range, 0.1% formic acid in water and acetonitrile; read-out: Log P

SMILES | chromatographic logP
O=C(NNC(=O)C(F)F)c1cnc(NC2(c3ccccc3)CCC2)nc1 [N′-(difluoroacetyl)-2-[(1-phenylcyclobutyl)amino]pyrimidine-5-carbohydrazide] | 1.99

Same assay, conditions: reversed phase HPLC column; log P determined according to method [a] (HPLC on reversed phase columns); read-out: logP

SMILES | chromatographic logP
CCC(C)(Nc1ncc(-c2nnc(C(F)F)o2)cn1)c1ccccc1 (stereo not drawn) [I.138, 5-[5-(difluoromethyl)-1,3,4-oxadiazol-2-yl]-N-(2-phenylbutan-2-yl)pyrimidin-2-amine] | 3.5
Cc1ccc(C2(Nc3ncc(-c4nnc(C(F)F)o4)cn3)COC2)cc1 [I.158, 5-[5-(difluoromethyl)-1,3,4-oxadiazol-2-yl]-N-[3-(4-methylphenyl)oxetan-3-yl]pyrimidin-2-amine] | 2.57
FC(F)c1nnc(-c2cnc(-c3ccc(Cl)cc3)nc2)o1 [I.101, 2-(4-chlorophenyl)-5-[5-(difluoromethyl)-1,3,4-oxadiazol-2-yl]pyrimidine] | 3.6
CC(Nc1ncc(-c2nnc(C(F)F)o2)cn1)c1c(F)cccc1F (racemic) [I.151, 5-[5-(difluoromethyl)-1,3,4-oxadiazol-2-yl]-N-[(1RS)-1-(2,6-difluorophenyl)ethyl]pyrimidin-2-amine] | 3.1
CC(Nc1ncc(-c2nnc(C(F)F)o2)cn1)c1ccccc1F (racemic) [I.124, 5-[5-(difluoromethyl)-1,3,4-oxadiazol-2-yl]-N-[(1RS)-1-(2-fluorophenyl)ethyl]pyrimidin-2-amine] | 2.89
Fc1cccc(F)c1CNc1ncc(-c2nnc(C(F)F)o2)cn1 [I.129, N-(2,6-difluorobenzyl)-5-[5-(difluoromethyl)-1,3,4-oxadiazol-2-yl]pyrimidin-2-amine] | 2.67
Fc1ccccc1CNc1ncc(-c2nnc(C(F)F)o2)cn1 [I.111, 5-[5-(difluoromethyl)-1,3,4-oxadiazol-2-yl]-N-(2-fluorobenzyl)pyrimidin-2-amine] | 2.62

Same assay, conditions: reversed phase HPLC column; method [a], HPLC on reversed phase columns; read-out: logP

SMILES | chromatographic logP
FC(F)c1nnc(-c2cnc(NC3(c4ccc(C(F)(F)F)cc4)CC3)nc2)o1 [I.250, 5-[5-(difluoromethyl)-1,3,4-oxadiazol-2-yl]-N-{1-[4-(trifluoromethyl)phenyl]cyclopropyl}pyrimidin-2-amine] | 3.25
FC(F)c1nnc(-c2cnc(NC3(c4cccc(Cl)c4)CCCCC3)nc2)o1 [I.258, N-[1-(3-chlorophenyl)cyclohexyl]-5-[5-(difluoromethyl)-1,3,4-oxadiazol-2-yl]pyrimidin-2-amine] | 4.35
CC(Nc1ncc(-c2nnc(C(F)F)o2)cn1)c1ccncc1 (racemic) [I.190, 5-[5-(difluoromethyl)-1,3,4-oxadiazol-2-yl]-N-[(1RS)-1-(pyridin-4-yl)ethyl]pyrimidin-2-amine] | 0.65
C#CCN(c1ncc(-c2nnc(C(F)F)o2)cn1)C1(c2ccccc2F)CC1 [I.241, 5-[5-(difluoromethyl)-1,3,4-oxadiazol-2-yl]-N-[1-(2-fluorophenyl)cyclopropyl]-N-(prop-2-yn-1-yl)pyrimidin-2-amine] | 4.09
FC(F)c1nnc(-c2cnc(NC3(c4ccccc4Cl)CCC3)nc2)o1 [I.174, N-[1-(2-chlorophenyl)cyclobutyl]-5-[5-(difluoromethyl)-1,3,4-oxadiazol-2-yl]pyrimidin-2-amine] | 3.81
FC(F)c1nnc(-c2cnc(NC3(c4ccc(Cl)cc4)CCC3)nc2)o1 [I.237, N-[1-(4-chlorophenyl)cyclobutyl]-5-[5-(difluoromethyl)-1,3,4-oxadiazol-2-yl]pyrimidin-2-amine] | 3.71
CC(C)C1(Nc2ncc(-c3nnc(C(F)F)o3)cn2)CC1 [I.187, 5-[5-(difluoromethyl)-1,3,4-oxadiazol-2-yl]-N-(1-isopropylcyclopropyl)pyrimidin-2-amine] | 2.65
CC(C)(CNc1ncc(-c2nnc(C(F)F)o2)cn1)c1ccc(F)cc1 [I.224, 5-[5-(difluoromethyl)-1,3,4-oxadiazol-2-yl]-N-[2-(4-fluorophenyl)-2-methylpropyl]pyrimidin-2-amine] | 3.44
FC(F)c1nnc(-c2cnc(NC3(c4ccco4)CCCC3)nc2)o1 [I.208, 5-[5-(difluoromethyl)-1,3,4-oxadiazol-2-yl]-N-[1-(2-furyl)cyclopentyl]pyrimidin-2-amine] | 3.18
FC(F)c1nnc(-c2cnc(NC3(c4ccc(C(F)(F)F)cc4)CCCC3)nc2)o1 [I.266, 5-[5-(difluoromethyl)-1,3,4-oxadiazol-2-yl]-N-{1-[4-(trifluoromethyl)phenyl]cyclopentyl}pyrimidin-2-amine] | 4.16
FC(F)c1nnc(-c2cnc(NC3(c4ccc(Cl)c(Cl)c4)CC3)nc2)o1 [I.252, N-[1-(3,4-dichlorophenyl)cyclopropyl]-5-[5-(difluoromethyl)-1,3,4-oxadiazol-2-yl]pyrimidin-2-amine] | 3.43
Fc1ccccc1C1(Nc2ncc(-c3nnc(C(F)(F)F)s3)cn2)CC1 [I.178, N-[1-(2-fluorophenyl)cyclopropyl]-5-[5-(trifluoromethyl)-1,3,4-thiadiazol-2-yl]pyrimidin-2-amine] | 3.79
CC(C)(Nc1ncc(-c2nnc(C(F)F)o2)cn1)c1cccc(C(F)(F)F)c1 [I.256, 5-[5-(difluoromethyl)-1,3,4-oxadiazol-2-yl]-N-{2-[3-(trifluoromethyl)phenyl]propan-2-yl}pyrimidin-2-amine] | 3.63
Cc1ccccc1C(C)(C)Nc1ncc(-c2nnc(C(F)F)o2)cn1 [I.205, 5-[5-(difluoromethyl)-1,3,4-oxadiazol-2-yl]-N-[2-(2-methylphenyl)propan-2-yl]pyrimidin-2-amine] | 3.28
FC(F)c1nnc(-c2cnc(NC3(c4cccc(Cl)c4Cl)CC3)nc2)o1 [I.253, N-[1-(2,3-dichlorophenyl)cyclopropyl]-5-[5-(difluoromethyl)-1,3,4-oxadiazol-2-yl]pyrimidin-2-amine] | 3.74
CC(CNc1ncc(-c2nnc(C(F)F)o2)cn1)c1ccc(F)cc1 (racemic) [I.211, 5-[5-(difluoromethyl)-1,3,4-oxadiazol-2-yl]-N-[(2RS)-2-(4-fluorophenyl)propyl]pyrimidin-2-amine] | 3.13
COC(=O)C(Nc1ncc(-c2nnc(C(F)F)o2)cn1)c1ccccn1 (stereo not drawn) [I.222, methyl ({5-[5-(difluoromethyl)-1,3,4-oxadiazol-2-yl]pyrimidin-2-yl}amino)(pyridin-2-yl)acetate] | 1.92
CC(Nc1ncc(-c2nnc(C(F)F)o2)cn1)c1ccc2ccccc2n1 (racemic) [I.233, 5-[5-(difluoromethyl)-1,3,4-oxadiazol-2-yl]-N-[(1RS)-1-(quinolin-2-yl)ethyl]pyrimidin-2-amine] | 2.04
FC(F)Oc1ccc(C2(Nc3ncc(-c4nnc(C(F)F)o4)cn3)CC2)cc1 [I.247, N-{1-[4-(difluoromethoxy)phenyl]cyclopropyl}-5-[5-(difluoromethyl)-1,3,4-oxadiazol-2-yl]pyrimidin-2-amine] | 2.91
